The record followed here is patent US20240270762A1, “PENICILLIN-BINDING PROTEIN INHIBITORS” (priority 2021, published 2024).

For assay [1], the target named is T1, A. baumannii PBP1a (Acinetobacter baumannii, UniProt A0ABX6CK30).
T1 sequence (A0ABX6CK30 1-851): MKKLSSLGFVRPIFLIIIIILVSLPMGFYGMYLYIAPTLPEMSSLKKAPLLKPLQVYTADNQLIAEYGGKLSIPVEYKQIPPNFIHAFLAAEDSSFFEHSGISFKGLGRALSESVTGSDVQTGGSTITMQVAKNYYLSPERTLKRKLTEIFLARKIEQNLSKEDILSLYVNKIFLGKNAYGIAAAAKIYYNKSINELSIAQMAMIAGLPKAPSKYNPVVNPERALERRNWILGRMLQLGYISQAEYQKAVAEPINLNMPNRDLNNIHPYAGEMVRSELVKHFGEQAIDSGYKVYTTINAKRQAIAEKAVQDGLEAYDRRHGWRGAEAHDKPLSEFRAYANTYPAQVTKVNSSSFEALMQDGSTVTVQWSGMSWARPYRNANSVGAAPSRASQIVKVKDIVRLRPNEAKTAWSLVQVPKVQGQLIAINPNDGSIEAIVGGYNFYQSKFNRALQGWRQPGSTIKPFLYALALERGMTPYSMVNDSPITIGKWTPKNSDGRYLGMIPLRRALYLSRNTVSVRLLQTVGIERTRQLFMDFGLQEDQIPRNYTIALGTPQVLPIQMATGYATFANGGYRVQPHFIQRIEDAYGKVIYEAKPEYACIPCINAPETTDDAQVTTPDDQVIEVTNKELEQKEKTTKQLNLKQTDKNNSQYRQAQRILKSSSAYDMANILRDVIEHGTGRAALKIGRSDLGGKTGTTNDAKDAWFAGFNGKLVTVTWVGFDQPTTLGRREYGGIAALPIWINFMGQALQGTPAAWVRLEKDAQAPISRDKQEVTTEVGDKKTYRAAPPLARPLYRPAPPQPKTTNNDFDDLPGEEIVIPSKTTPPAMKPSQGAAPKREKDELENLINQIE
Briefly: Bocillin-FL competition binding via gel filtration, A. baumannii PBP1a. The note with it: competition binding assay using Bocillin-FL via gel filtration; read-out: A. baumannii PBP1a Potency. The protocol: (§1) Affinity to A. baumannii PBP1a and PBP2 was assessed a competitive equilibrium binding assay using Bocillin-FL as the reporter molecule. Enzyme was pre-incubated with increasing concentrations of inhibitors, prior to addition of Bocillin and further incubation for 15 minutes. PBP bound with Bocillin-FL was separated by gel filtration using 96-well Zeba Spin size exclusion plates, and the fluorescence measured. The inhibitor affinity (reported as the EC50) was determined by plotting the fraction of PBP bound with Bocillin-FL at each inhibitor concentration against the inhibitor concentration, and fitting the data to the following equation:
(§2) [formula] • where y is the fraction bound at a given inhibitor concentration, ymin is the fraction bound when the enzyme is completely inactivated, ymax is the maximum (uninhibited) fraction bound, n is the Hill coefficient, and x is the inhibitor concentration.

For assay [2], the target named is A. baumannii PBP2 (Acinetobacter baumannii, UniProt D0C8Z9). Nature of the assay: Bocillin-FL competition binding via gel filtration, A. baumannii PBP2. How it is done: as §1, §2
Chain of A. baumannii PBP2 (D0C8Z9 whole entry): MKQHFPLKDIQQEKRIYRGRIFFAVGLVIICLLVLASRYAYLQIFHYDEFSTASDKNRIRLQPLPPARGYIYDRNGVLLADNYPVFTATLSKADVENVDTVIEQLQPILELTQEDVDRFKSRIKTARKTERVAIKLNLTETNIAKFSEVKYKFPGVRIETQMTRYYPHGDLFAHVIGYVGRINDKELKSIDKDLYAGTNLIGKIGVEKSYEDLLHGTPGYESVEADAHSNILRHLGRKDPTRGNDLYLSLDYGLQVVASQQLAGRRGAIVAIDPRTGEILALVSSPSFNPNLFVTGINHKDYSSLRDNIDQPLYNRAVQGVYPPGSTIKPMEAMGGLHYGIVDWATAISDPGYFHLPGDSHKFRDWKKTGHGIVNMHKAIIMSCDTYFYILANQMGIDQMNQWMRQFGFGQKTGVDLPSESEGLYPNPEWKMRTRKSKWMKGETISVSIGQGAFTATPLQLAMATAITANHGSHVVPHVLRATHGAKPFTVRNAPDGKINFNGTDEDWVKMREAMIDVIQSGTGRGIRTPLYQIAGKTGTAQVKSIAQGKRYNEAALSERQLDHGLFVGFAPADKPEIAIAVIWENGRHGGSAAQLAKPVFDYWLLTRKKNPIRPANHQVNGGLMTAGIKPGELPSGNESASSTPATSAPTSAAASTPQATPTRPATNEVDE
Background: In gel filtration, larger molecules generally elute earlier.

The test system of assay [3] is B. thailandensis ATCC 700388. Nature of the assay: microbe, parasite or virus in culture. The note with it: Burkholderia thailandensis, ATCC700388, read-out: Minimum inhibitory concentration (MIC), B. thailandensis ATCC 700388. In kind it is cell-based.
Assay [4] has as its system B. humptydooensis ATCC BAA-2767. Briefly: microbe, parasite or virus in culture. It counts as cell-based. The note with it: Burkholderia humptydooensis, ATCCBAA2767, read-out: Minimum inhibitory concentration (MIC), B. humptydooensis ATCC BAA-2767.

As to `O=C(O)c1c(F)ccc2c1OB(O)[C@@H](NC(=O)[C@H](NC(=O)N1CCN(C3CCN(Cc4cc(O)cc(F)c4)CC3)C1=O)c1cc(F)c(O)c(O)c1Cl)C2` (single isomer, unassigned) [Example 607], the EC50 is < 10 µM in assay [1] and 10 to 50 µM in assay [2]. For the same molecule, the MIC in assay [3] and in assay [4] was < 1 µg/mL each time.
As to `O=C(O)c1c(F)ccc2c1OB(O)[C@@H](NC(=O)C(NC(=O)N1CCN(C3CCN(Cc4ccc(O)cc4F)CC3)C1=O)c1cc(F)c(O)c(O)c1Cl)C2` (single isomer, unassigned) [Example 611], the EC50 in assay [1] is < 10 µM; in assay [2] it was 10 to 50 µM. In addition, the MIC in assay [3] and in assay [4] was < 1 µg/mL in each case.
`O=C(O)c1c(F)ccc2c1OB(O)[C@@H](NC(=O)[C@H](NC(=O)N1CCN(C3CCN(Cc4cc(O)ccc4F)CC3)C1=O)c1cc(F)c(O)c(O)c1Cl)C2` (single isomer, unassigned) [Example 608]: the EC50 is < 10 µM in assay [1] and 10 to 50 µM in assay [2]. Besides, the MIC in assay [3] and in assay [4] was < 1 µg/mL in each case.
On to `NCc1cccc(CN2CCC(N3CCN(C(=O)N[C@@H](C(=O)N[C@H]4Cc5ccc(F)c(C(=O)O)c5OB4O)c4cc(F)c(O)c(O)c4Cl)C3=O)CC2)c1` (single isomer, unassigned) [Example 613], for which the EC50 in assay [1] and in assay [2] was 10 to 50 µM each time. The MIC in assay [3] and in assay [4] was < 1 µg/mL in each case.
Regarding `O=C(O)c1c(F)ccc2c1OB(O)[C@@H](NC(=O)C(NC(=O)N1CCN(C3CCN(Cc4ccc(F)c(O)c4)CC3)C1=O)c1cc(F)c(O)c(O)c1Cl)C2` (single isomer, unassigned) [Example 606], the EC50 in assay [1] was < 10 µM; in assay [2], 10 to 50 µM. The MIC in assay [3] and in assay [4] was < 1 µg/mL in each case.
As for `O=C(O)c1c(F)ccc2c1OB(O)[C@@H](NC(=O)C(NC(=O)N1CCN(C3CCN(S(=O)(=O)c4cc(O)cc(O)c4)CC3)C1=O)c1cc(F)c(O)c(O)c1Cl)C2` (stereo partly drawn) [Example 600, (3R)-3-(2-(2-chloro-5-fluoro-3,4-dihydroxyphenyl)-2-(3-(1-((3,5-dihydroxyphenyl)sulfonyl)piperidin-4-yl)-2-oxoimidazolidine-1-carboxamido)acetamido)-7-fluoro-2-hydroxy-3,4-dihydro-2H-benzo[e][1,2]oxaborinine-8-carboxylic acid], the EC50 in assay [1] and in assay [2] was < 10 µM each time. Besides, the MIC in assay [3] and in assay [4] was > 128 µg/mL in each case.
